System: ovariectomized (OVX) female Sprague Dawley rats
Assay: Osteoporosis Test Procedure (ovariectomized rat, femur density)
Type: in vivo
Details: orally administered in 20% hydroxypropyl cyclodextrin, daily for 35 days, compared to intact, vehicle treated controls
From the text: Seventy-five day old female Sprague Dawley rats (weight range of 200 to 225 g) are obtained from Charles River Laboratories (Portage, Mich.). The animals are either bilaterally ovariectomized (OVX) or exposed to a Sham surgical procedure at Charles River Laboratories, and then shipped after one week. Upon arrival, they are housed in metal hanging cages in groups of 3 or 4 per cage and have ad libitum access to food (calcium content approximately 0.5%) and water for one week. Room temperature is maintained at 22.2°±1.70° C. with a minimum relative humidity of 40%. The photoperiod in the room is 12 hours light and 12 hours dark.
After a one week acclimation period (therefore, two weeks post-OVX) daily dosing with test compound is initiated. […] The animals are then sacrificed by asphyxiation with CO2, the uterus is removed through a midline incision, and a wet uterine weight is determined.
Following the General Preparation Procedure, infra, the rats are treated daily for 35 days (6 rats per treatment group) and sacrificed by carbon dioxide asphyxiation on the 36th day. The 35 day time period is sufficient to allow maximal reduction in bone density, measured as described herein. […]
The right femurs are excised and digitilized x-rays generated and analyzed by an image analysis program (NIH image) at the distal metaphysis. […]

Compound: C#C[C@]1(O)CC[C@H]2[C@@H]3CCc4cc(O)ccc4[C@H]3CC[C@@]21C [ethynyl estradiol, 17α-ethynyl estradiol]
- reduction in femur density caused by ovariectomy: prevented this loss
